# Experimental data published in patent publication US20240270737A1, “SMALL MOLECULAR INHIBITORS OF STING SIGNALING COMPOSITIONS AND METHODS OF USE” (STINGINN INC., priority 2021, published 2024).
# Assays:
# [1] = system: IRF3 translocation induced by dsDNA (ISD); test: IRF3 translocation inhibition, confocal/immunofluorescence after ISD transfection; assay type: cell-based; details: Homo sapiens, % means blockage of IRF3 translocation induced by dsDNA (ISD)
# Procedure: Inhibition of IFNβ expression was measured by Luciferase induction at 24 hours after transfection of ISD. […]. […] FIG. 3H qPCR of IFNβ 1 performed in MEFs treated same as in FIG. 3A. FIG. 3I qPCR of CCL5 performed in MEFs treated same as in FIG. 3A.
# Immunofluorescence Microscopy: Cells were cultured and treated in their appropriate media on Lab-Tek II chamber slides. Cell were fixed with 4% paraformaldehyde for 15 minutes in at 37° C. and permeabilized with 0.05% Triton X-100 for 5 minutes at room temperature. Immunostaining was performed with rabbit-anti-STING polyclonal, rabbit-anti-IRF3 (Santa Cruz Biotechnology) or rabbit-anti-p65 (Cell Signaling) followed by fluorescence conjugated secondary antibodies (FITC-goat-anti-rabbit) (Invitrogen).
# pIRF3, pSTING = test: Western blot of pIRF3, pSTING, pTBK1 after ISD transfection in hTERT cells; assay type: cell-based, human; details: Homo sapiens
# Procedure: FIG. 1C are photographs showing Western blot analysis of STING, phospho-TBK1 (pTBK1) and phospho-IRF3 (pIRF3) performed at 6 hours after ISD transfection with/without W1 treatment same as FIG. 1A, Mock is shown (210), ISD treatment only (220) was used as a control, according to an embodiment of the invention;
# Immunoblot analysis: Equal amounts of proteins were resolved on sodium dodecyl sulfate (SDS)-Polyacrylamide gels and then transferred to polyvinylidene fluoride (PVDF) membranes (Millipore). After blocking with 5% Blocking Reagent, membranes were incubated with various primary antibodies (and appropriate secondary antibodies). The image was resolved using an enhanced chemiluminescence system ECL (Thermo Scientific) and detected by autoradiography (Kodak). Antibodies: rabbit polyclonal antibody against STING was developed in our laboratory as described previously in Ishikawa et al, 2008; other antibodies were obtained from following sources: β-actin (Sigma Aldrich), p-IRF3 (Cell Signaling), IRF3 (Santa Cruz Biotechnology), p-p65 (Cell Signaling), p65 (Cell Signaling), p-TBK1 (Cell Signaling), TBK1 (Abcam), cGAS (Cell Signaling).
# [2] = system: IFNβ expression (type I IFNβ promoter driving luciferase); test: IFNβ promoter luciferase assay in hTERT-pIFNβ-Glu cells transfected with ISD; assay type: cell-based, human; details: Homo sapiens
# Procedure: Inhibition of IFNβ expression was measured by Luciferase induction at 24 hours after transfection of ISD, DMSO is shown (230), ISD treatment only (220) was used as a control, according to an embodiment of the invention;
# Inhibition of IFNβ expression was measured by Luciferase induction at 24 hours after transfection of ISD, Mock is shown (210), ISD treatment only (220) was used as a control, according to an embodiment of the invention;
# Identification of small molecule inhibitors of STING. In the presence of cytosolic DNA species, STING becomes activated to drive the transcription of cytokines such as type I IFN. Compounds binding to STING via TSA were subsequently examined for their ability to prevent cytosolic DNA species from activating the type I interferon (IFN) promoter, using a live cell assay. This assay comprised immortalized human fibroblasts (hTERT) that were stably transfected with the type I IFN promoter driving luciferase as well as the CMV promoter driving SEAP (hTERT-pIFNβ-Glu). The live cell assay has previously been disclosed in PCT/US2019/025380 entitled IFN-Beta Reporter System for Immortalized Primary Cells inventor Glen N. Barber, which was filed Apr. 2, 2018 and published as WO2019195285, and which is herein incorporated by reference in its entirety and for all purposes. The ability of the small molecules to prevent activation of the type I IFN promoter and the transcription of luciferase, but not SEAP in response to cytosolic DNA species was assessed. The activation of STING, typically by CDNs, in turn activates the transcription factors NF-κB and IRF3, both of which are required to induce the transcriptional stimulation of the Type I IFN promoter, but not the CMV promoter as IRF3 and NF-kB transcription factor binding sites are not contained in the CMV promoter. The assay identified the small molecule Compound W1 in the first screen (HTS), where the level of luciferase was not able to activate the type I IFN promoter or induce the expression of luciferase (see Table I and Table II).
# Inhibition of IFNβ expression was measured by Luciferase induction at 24 hours after transfection of ISD. ISD only treatment was used as control.
# Inhibition of IFNβ expression was measured by Luciferase induction at 24 hours after transfection of ISD, Mock is shown (210), ISD treatment only (220) was used as a control.
# Luciferase assay: hTERT-BJ1 Telomerase Fibroblasts stably expressing the luciferase gene under the control of the interferon-beta promoter and SEAP gene under control of the CMV promoter) (hTERT-pIFNβ-Glu) were generated by the Barber laboratory. Luciferase assay was performed using Secrete-Pair Dual Luminescence Assay Kit from GeneCopoeia following the manufacturer's protocol.
SMILES,inhibition at 25 µM [1] [%],"inhibition at 10 µM (pIRF3, pSTING) [%]",inhibition at 5 µM [2] [%]
"Cc1cc(N2CCN(Cc3csc(-c4ccc(Cl)cc4)n3)CC2)nc(N(C)C)n1 [Compound W14, 4-(4-{[2-(4-chlorophenyl)-1,3-thiazol-4-yl]methyl}piperazin-1-yl)-N,N,6-trimethylpyrimidin-2-amine]",~70,90 to 100,42
"Cc1cc(N2CCN(Cc3ncc(-c4ccccc4)s3)CC2)nc(N(C)C)n1 [Compound W20, N,N,4-trimethyl-6-{4-[(5-phenyl-1,3-thiazol-2-yl)methyl]piperazin-1-yl}pyrimidin-2-amine]",40 to 50,< 10,79
"COc1ccc(-c2nc(CN3CCN(c4cc(C)nc(N(C)C)n4)CC3)cs2)c(OC)c1 [Compound W13, 4-(4-{[2-(2,4-dimethoxyphenyl)-1,3-thiazol-4-yl]methyl}piperazin-1-yl)-N,N,6-trimethylpyrimidin-2-amine]",40 to 50,90 to 100,30
CCc1ccc(-c2nc(CN3CCN(c4cc(C)nc(N(C)C)n4)CC3)cs2)cc1 [Compound W15],90 to 100,90 to 100,69
"COc1ccc(-c2nc(CN3CCN(c4nc(C)nc(N(C)C)n4)CC3)cs2)cc1OC [Compound W4, 4-(4-{[2-(3,4-dimethoxyphenyl)-1,3-thiazol-4-yl]methyl}piperazin-1-yl)-N,N,6-trimethyl-1,3,5-triazin-2-amine]",,< 10,4
"Cc1cc(N2CCN(Cc3csc(-c4ccc(C(F)(F)F)cc4)n3)CC2)nc(N(C)C)n1 [Compound W11, N,N,4-trimethyl-6-[4-({2-[4-(trifluoromethyl)phenyl]-1,3-thiazol-4-yl}methyl)piperazin-1-yl]pyrimidin-2-amine]",90 to 100,90 to 100,38
"COc1ccc(-c2nc(CN3CCN(c4cc(C)nc(N(C)C)n4)CC3)cs2)cc1OC [Compound W3, 4-(4-{[2-(3,4-dimethoxyphenyl)-1,3-thiazol-4-yl]methyl}piperazin-1-yl)-N,N,6-trimethylpyrimidin-2-amine]",40 to 50,40 to 50,-37
